The target in assay [1] is T1, GRP94 (Mus musculus, UniProt P08113). The experiment in a line: Solid phase 96-well plate assay of peptide binding by recombinant GRP94 N-terminal fragments. Set-up: His6 tagged N355, comprising of amino acids 34-355 of GRP94; made in house; host or cells: E. coli M15; species or system murine.
The target of assay [2] is GRP94 (Homo sapiens, UniProt P14625). The experiment in a line: GRP94 binding of antigenic peptides (Table 3).
The test system of assay [3] is GRP94. The note with it: vast molar excess of peptide, 10 min 50° C. treatment of the protein.
Assay [4] addresses T1, GRP94. Set-up: a truncated version of GRP94, containing amino acids 1-355; made in house; host or cells: insect cells. Particulars: full-length GRP94, ref [14]; cited from earlier work.
The subject of assay [5] is grp94-/- ES cells. The note with it: 1 mM EGTA, FIG. 14E-F.
Assay [6] relates to WT ES cells. Particulars: 1 mM EGTA, FIG. 14E-F.
Assay [7] deals with GRP94. Put plainly: Solid phase 96-well plate assay of peptide binding by recombinant GRP94 N-terminal fragments. Details: species or system murine.
In assay [8] the test system is purified mouse dendritic cells. The experiment in a line: Binding and uptake of GRP94 N-terminal domain by dendritic cells. The note with it: bound at 40° C., warmed to 37° C., into endosomal vesicles, FIG. 16. In kind it is cell-based.
In assay [9] the test system is radicicol-binding pocket of GRP94. Put plainly: Radicicol binding judged by conformational change on blue native gel electrophoresis. Set-up: species or system murine. Particulars: 300 μM radicicol or DMSO.
The test system of assay [10] is tumors. The note with it: vaccinated mice, Blachere et al. 1997; cited from earlier work.
The mark [11] stands for this setting: antigenic peptides that can be loaded on GRP94.

These results are taken from patent US7589174B2, “GRP94-based compositions and methods of use thereof” (The Children's Hospital of Philadelphia, priority 2003, dated 2009).

Where two headings read alike, the source gives them in different places.

Chain of GRP94 (Homo sapiens, UniProt P14625) (P14625 22-803, species assumed): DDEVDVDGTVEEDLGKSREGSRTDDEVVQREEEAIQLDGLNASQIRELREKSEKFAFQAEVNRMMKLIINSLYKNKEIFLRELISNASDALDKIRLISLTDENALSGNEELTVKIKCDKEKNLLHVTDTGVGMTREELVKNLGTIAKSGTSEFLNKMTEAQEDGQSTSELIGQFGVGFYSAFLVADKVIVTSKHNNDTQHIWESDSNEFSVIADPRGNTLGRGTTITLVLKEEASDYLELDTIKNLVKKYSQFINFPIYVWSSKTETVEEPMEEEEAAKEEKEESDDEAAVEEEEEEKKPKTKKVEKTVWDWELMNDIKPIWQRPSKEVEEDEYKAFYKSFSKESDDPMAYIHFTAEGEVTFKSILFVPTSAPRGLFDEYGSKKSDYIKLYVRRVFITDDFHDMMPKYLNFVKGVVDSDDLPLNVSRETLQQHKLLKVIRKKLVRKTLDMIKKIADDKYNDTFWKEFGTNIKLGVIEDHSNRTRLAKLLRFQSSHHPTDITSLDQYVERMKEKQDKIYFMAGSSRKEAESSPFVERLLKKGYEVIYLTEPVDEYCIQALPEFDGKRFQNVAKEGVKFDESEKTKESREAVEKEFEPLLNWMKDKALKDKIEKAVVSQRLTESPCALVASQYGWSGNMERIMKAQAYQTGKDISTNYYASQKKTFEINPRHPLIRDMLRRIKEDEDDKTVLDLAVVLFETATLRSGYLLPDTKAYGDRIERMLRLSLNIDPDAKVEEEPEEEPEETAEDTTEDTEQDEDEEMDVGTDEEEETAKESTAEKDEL

`c1c[nH]cn1` [imidazole]: the IC50 in assay [1] (N34-355 binding to peptide A, FIG. 6B, read-out: Imidazole concentration that reduced peptide binding by half) amounted to 6 mM.

On to FLWGPRALV [MAGE 3], for which the GRP94 binding entry in assay [2] (setting [11]) was “yes”.

With Glucose Regulated Protein 94 [GRP94], the “Fraction of the protein that can be loaded with peptide” value in [3] is “up to 85%”. Moreover, in assay [4], the “Fraction of the protein shown to bind peptides” value was “about 1%”.

With RGYVYQGL [VSV8], the GRP94 binding entry in assay [2] is reported as “yes”. Further, the “Binder or non-binder of GRP94 in the peptide binding assay” value in assay [1] is recorded as “binder”.

Take `CCOC(=O)OC(=O)OCC` [DEPC, Diethyl pyrocarbonate]: the “Effect of histidine modification on peptide-binding activity of N34-355” value in [1] (His6 tag cleaved, peptide A-coated plates, 0.7 μg protein per well, FIG. 6C) is “abolished”.

KRQIYTDLEMNRLGK [PepA]: the “Binder or non-binder of GRP94 in the peptide binding assay” value in assay [1] is listed as “binder”.

Consider `NO` [Hydroxylamine], for which the “Effect of histidine modification on peptide-binding activity of N34-355” value in assay [1] is “restored the activity”.

On to RAHYNIVTF (RAH), for which the GRP94 binding result in assay [2] was “yes, weak”.

`O=C(O)CN(CCOCCOCCN(CC(=O)O)CC(=O)O)CC(=O)O` [EGTA]: the “Growth under Ca++-chelating conditions, -/- cells” value in [5] is recorded as “cannot grow”. In addition, in assay [6], the “Growth under Ca++-chelating conditions, WT cells” value is given as “can grow for 5 days”.

As to SIINFEKL [OVA 257-264], in assay [2] (setting [11]), the GRP94 binding entry is recorded as “yes”.

B1: N34-355: Recombinant GRP94 fragment, amino acids 34-355, N-terminal His6 tag and factor Xa site, expressed in E. coli (protein)
chain: PYNGTGSAIQLDGLNASQIRELREKSEKFAFQAEVNRMMKLIINSLYKNKEIFLRELISNASDALDKIRLISLTDENALSGNEELTVKIKCDKEKNLLHVTDTGVGMTREELVKNLGTIAKSGTSEFLNKMTEAQEDGQSTSELIGQFGVGFYSAFLVADKVIVTSKHNNDTQHIWESDSNEFSVIADPRGNTLGRGTTITLVLKEEASDYLELDTIKNLVKKYSQFINFPIYVWSSKTETVEEPMEEEEAAKEEKEESDDEAAVEEEEEEKKPKTKKVEKTVWDWELMNDIKPIWQRPSKEVEEDEYKAFYKSFSKESDDPMAYIHFT
modifications: left off: small tags and cut ends
notes: Recombinant GRP94 fragment, amino acids 34-355, N-terminal His6 tag and factor Xa site, expressed in E. coli
Take B1: the “Inhibition of peptide binding activity by pre-treatment with radicicol” value in assay [7] is “inhibited significantly”. In assay [8], the “Uptake by dendritic cells” value is “internalized”. In assay [1] (VSV8-coated plates, compared with N1-355, FIG. 1B), the “Binding of VSV8 peptide (dose binding curve)” value is listed as “binding curve very similar to that of N1-355”.

B2: H125D: N34-355 with His125 mutated to Asp (protein, UniProt P14625 34-355, looked up, variant H125D)
chain: DLGKSREGSRTDDEVVQREEEAIQLDGLNASQIRELREKSEKFAFQAEVNRMMKLIINSLYKNKEIFLRELISNASDALDKIRLISLTDENALSGNEELTVKIKCDKEKNLLDVTDTGVGMTREELVKNLGTIAKSGTSEFLNKMTEAQEDGQSTSELIGQFGVGFYSAFLVADKVIVTSKHNNDTQHIWESDSNEFSVIADPRGNTLGRGTTITLVLKEEASDYLELDTIKNLVKKYSQFINFPIYVWSSKTETVEEPMEEEEAAKEEKEESDDEAAVEEEEEEKKPKTKKVEKTVWDWELMNDIKPIWQRPSKEVEEDEY
modifications: fragment 34-355 His6 tag, factor Xa site
notes: N34-355 with His125 mutated to Asp
Regarding B2, the Peptide binding activity result in assay [7] (peptide A-coated plates, 0.7 or 2 μg protein, FIG. 7A) is “almost no peptide binding activity”. Moreover, the “Radicicol binding (conformational change, native gel mobility, 9G10 epitope)” value in [9] is listed as “retained its ability to bind the inhibitor radicicol”.

B3: GRP94 bound to tumor peptides: GRP94 complexed with tumor peptides, used to vaccinate mice (Srivastava's lab) (protein, UniProt P08113 22-802, looked up)
Endoplasmin: DDEVDVDGTVEEDLGKSREGSRTDDEVVQREEEAIQLDGLNASQIRELREKSEKFAFQAEVNRMMKLIINSLYKNKEIFLRELISNASDALDKIRLISLTDENALAGNEELTVKIKCDKEKNLLHVTDTGVGMTREELVKNLGTIAKSGTSEFLNKMTEAQEDGQSTSELIGQFGVGFYSAFLVADKVIVTSKHNNDTQHIWESDSNEFSVIADPRGNTLGRGTTITLVLKEEASDYLELDTIKNLVRKYSQFINFPIYVWSSKTETVEEPLEEDEAAKEEKEESDDEAAVEEEEEEKKPKTKKVEKTVWDWELMNDIKPIWQRPSKEVEEDEYKAFYKSFSKESDDPMAYIHFTAEGEVTFKSILFVPTSAPRGLFDEYGSKKSDYIKLYVRRVFITDDFHDMMPKYLNFVKGVVDSDDLPLNVSRETLQQHKLLKVIRKKLVRKTLDMIKKIADEKYNDTFWKEFGTNIKLGVIEDHSNRTRLAKLLRFQSSHHSTDITSLDQYVERMKEKQDKIYFMAGSSRKEAESSPFVERLLKKGYEVIYLTEPVDEYCIQALPEFDGKRFQNVAKEGVKFDESEKTKESREATEKEFEPLLNWMKDKALKDKIEKAVVSQRLTESPCALVASQYGWSGNMERIMKAQAYQTGKDISTNYYASQKKTFEINPRHPLIRDMLRRIKEDEDDKTVMDLAVVLFETATLRSGYLLPDTKAYGDRIERMLRLSLNIDPEAQVEEEPEEEPEDTSEDAEDSEQDEGEEMDAGTEEEEEETEKESTEKDEL
modifications: complexed with tumor peptides
Regarding B3, the “Improvement of T cell responses on tumor challenge compared to control mice” value in assay [10] is reported as 10-200 fold.
